# Data: patent US20120115754A1, “METHOD FOR DIAGNOSING AND/OR TYPING RENAL CELL CARCINOMA” (priority 2009, published 2012)
# Columns and labels:
# [1] = test system: tumor kidney (RCC) tissue lysate, tyrosine kinase activity; test: Peptide microarray (PamChip) kinase activity profiling of tumor kidney lysate with kinase inhibitor added to the lysate; assay type: biochemical, human
# Description: (§1) Both normal and tumor kidney tissue were derived from resection material immediately after surgery. These tissues were snap-frozen and were stored at −85° C. The tissues were cut in slices of 10 μm and stored. For protein extraction 6 slices were lysed in 100 μL of Mammalian Protein Extraction Buffer (M-PER), a lysis buffer containing HALT protease and phosphatase inhibitors, for 60 minutes on ice. The protein concentration was determined for each sample and for the analysis on a peptide microarray comprising 144 peptides typically 5 μg of protein was used. […]
# (§2) To assess the effect of a kinase inhibitor, the kinase inhibitors sorafinib or sunitinib were added to the lysate before application onto the peptide microarray. During 60 cycles of pumping the lysate reaction mixture through the array, peptide phosphorylation was detected by the fluorescently labelled PY20 anti-phosphotyrosine antibody present in the lysate reaction mixture. Real time data were obtained by measuring fluorescence of the bound anti-phosphotyrosine antibody after each 5 cycles. […] Signals for each spot on the image were quantified. Image quantification and data processing was conducted with dedicated PamGene software (Evolve and Bionavigator). […]
# [2] = test system: normal kidney tissue (NK) lysate, tyrosine kinase activity; test: Peptide microarray (PamChip) kinase activity profiling of normal kidney lysate with kinase inhibitor added to the lysate; assay type: biochemical, human
# Description: as §1, §2
smiles,measurement,setting,value
"CNC(=O)c1cc(Oc2ccc(NC(=O)Nc3ccc(Cl)c(C(F)(F)F)c3)cc2)ccn1 [sorafinib, sorafenib]",phosphorylation pattern compared to the control (DMSO),"[1]; lysate of tumor kidney (RCC) tissue of one patient, inhibitor pipetted into lysate, FIG. 4 heatmap",decreased phosphorylation pattern
same,"inhibition of peptide phosphorylation, peptides indicated by downwards arrows","[1]; tumor tissue, on-chip treatment, in comparison to other peptides, FIG. 4",highly inhibited
same,phosphorylation pattern compared to the control (DMSO),"[2]; lysate of normal kidney tissue (NK) of one patient, inhibitor pipetted into lysate, FIG. 4 heatmap",decreased phosphorylation pattern
same,"inhibition of peptide phosphorylation, peptides indicated by upward arrows","[2]; normal tissue, on-chip treatment, candidate markers for off-target effects, FIG. 4",show inhibition
